Source: the NIST ThermoML archive (doi:10.1016/j.jct.2015.09.006)
± gives the expanded uncertainty stated by the source. Values belong to the molecule of their own block, whether it stands above or below them.

Test: wn = mass fraction of the nth substance listed
Conditions: 323.15 K, 101.3 kPa, Liquid, Vibrating tube method

mass density (w1 = 0.566): 1575.9 ± 24 kg/m3
SMILES: [Ca+2].[Cl-].[Cl-] [calcium chloride] + O

SMILES: O=[PH2][O-].O=[PH2][O-].[Ca+2] [calcium hypophosphite] + O
mass density (w1 = 0.1326): 1073.2 ± 24 kg/m3

SMILES: O=[PH2][O-].[Na+] [sodium phosphinate] + O
mass density (w1 = 0.5786): 1415.2 ± 24 kg/m3
